Consider three molecules from patent US10253002B2, “Compounds and methods of treating infections” (Neoculi Pty Ltd., priority 2013, dated 2019).

Structures are written as SMILES. Values joined by “and” are separate entries in the source; they are usually repeats but may differ in a detail not shown here. Equal entries are not always repeated.

For the first test, the system named is MRSA. The experiment in a line: Broth microdilution MIC, Example 7 (NCL812 and analogues). It counts as cell-based, Staphylococcus aureus. As to conditions: MIC testing, two MRSA strains. In short, it runs like this:
(§1)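 Turbidity read visually and then at 600 nm defined the MIC (μg/ml), comparing drug-containing wells with a growth-control well lacking antimicrobial. Testing followed the CLSI broth microdilution method, in duplicate, using two strains per organism group.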
On the technique in general: Broth dilution looks for growth in wells or tubes with falling amounts of substance.
As for `Cl.Cl.Nc1nc(N/N=C/C2CCCCC2)cc(N/N=C/C2CCCCC2)n1` [NCL203], the “activity against MRSA among analogues” value is recorded as “greatest activity”.
For `CC(=NNC(=N)NN=C(C)c1ccc(Cl)cc1F)c1ccc(Cl)cc1F.Cl` [NCL215], the “activity against MRSA among analogues” value was “greatest activity”.
Take `Cl.N=C(N/N=C/c1ccc(Cl)cc1F)N/N=C/c1ccc(Cl)cc1F` [NCL216]: the “activity against MRSA among analogues” value is given as “greatest activity”.

Staying with this test, now noted: MRSA 1, 24 hours.
In the case of `Cl.Cl.Nc1nc(N/N=C/C2CCCCC2)cc(N/N=C/C2CCCCC2)n1` [NCL203], the “MIC (μg/ml) at 24 hours, MRSA 1” value amounted to 32 µg/mL.
For the molecule `CC(=NNC(=N)NN=C(C)c1ccc(Cl)cc1F)c1ccc(Cl)cc1F.Cl` [NCL215], the “MIC (μg/ml) at 24 hours, MRSA 1” value was 8 µg/mL and 16 µg/mL.
Same read-out and setting: in the case of `Cl.N=C(N/N=C/c1ccc(Cl)cc1F)N/N=C/c1ccc(Cl)cc1F` [NCL216] it was 2 µg/mL and 4 µg/mL.

The test is the same for the next values; noted with them: MRSA 2, 24 hours.
Turning to `Cl.Cl.Nc1nc(N/N=C/C2CCCCC2)cc(N/N=C/C2CCCCC2)n1` [NCL203], the “MIC (μg/ml) at 24 hours, MRSA 2” value was 64 µg/mL.
Same read-out and setting: in the case of `CC(=NNC(=N)NN=C(C)c1ccc(Cl)cc1F)c1ccc(Cl)cc1F.Cl` [NCL215] it was 8 µg/mL; in that of `Cl.N=C(N/N=C/c1ccc(Cl)cc1F)N/N=C/c1ccc(Cl)cc1F` [NCL216], 2 µg/mL.

Staying with this test, now noted: bioassay ranking, MRSA.
In the case of `CC(=NNC(=N)NN=C(C)c1ccc(Cl)cc1F)c1ccc(Cl)cc1F.Cl` [NCL215], the MRSA amounted to 10 µg/mL.
The same measure, in the same setting: for `Cl.N=C(N/N=C/c1ccc(Cl)cc1F)N/N=C/c1ccc(Cl)cc1F` [NCL216] the value was 2.5 µg/mL.

A further test relates to VRE. Described as above. The class given is cell-based, Enterococcus spp. Conditions: MIC testing, two VRE strains. In short, it runs like this: as §1
`Cl.Cl.Nc1nc(N/N=C/C2CCCCC2)cc(N/N=C/C2CCCCC2)n1` [NCL203]: the “activity against VRE among analogues” value is “greatest activity”.
Take `CC(=NNC(=N)NN=C(C)c1ccc(Cl)cc1F)c1ccc(Cl)cc1F.Cl` [NCL215]: the “activity against VRE among analogues” value is listed as “greatest activity”.
For `Cl.N=C(N/N=C/c1ccc(Cl)cc1F)N/N=C/c1ccc(Cl)cc1F` [NCL216], the “activity against VRE among analogues” value is reported as “greatest activity”.

The test is the same for the next values; noted with them: VRE 1, 24 hours.
With `Cl.Cl.Nc1nc(N/N=C/C2CCCCC2)cc(N/N=C/C2CCCCC2)n1` [NCL203], the “MIC (μg/ml) at 24 hours, VRE 1” value was 32 µg/mL and 64 µg/mL.
On to `CC(=NNC(=N)NN=C(C)c1ccc(Cl)cc1F)c1ccc(Cl)cc1F.Cl` [NCL215], for which the “MIC (μg/ml) at 24 hours, VRE 1” value is 2 µg/mL and 4 µg/mL.
On the same count and under the same terms, in the case of `Cl.N=C(N/N=C/c1ccc(Cl)cc1F)N/N=C/c1ccc(Cl)cc1F` [NCL216] it was 2 µg/mL.

Still in this test, the particulars now being: VRE 2, 24 hours.
In the case of `Cl.Cl.Nc1nc(N/N=C/C2CCCCC2)cc(N/N=C/C2CCCCC2)n1` [NCL203], the “MIC (μg/ml) at 24 hours, VRE 2” value amounted to 32 µg/mL.
Still for that read-out and setting: in the case of `CC(=NNC(=N)NN=C(C)c1ccc(Cl)cc1F)c1ccc(Cl)cc1F.Cl` [NCL215] it was 4 µg/mL and 8 µg/mL.
The same measure, in the same setting: for `Cl.N=C(N/N=C/c1ccc(Cl)cc1F)N/N=C/c1ccc(Cl)cc1F` [NCL216] the value was 4 µg/mL.

Staying with this test, now noted: bioassay ranking, VRE.
`CC(=NNC(=N)NN=C(C)c1ccc(Cl)cc1F)c1ccc(Cl)cc1F.Cl` [NCL215] displayed a VRE of 4.5 µg/mL.
On the same count and under the same terms, for `Cl.N=C(N/N=C/c1ccc(Cl)cc1F)N/N=C/c1ccc(Cl)cc1F` [NCL216] the value was 3 µg/mL.

For the next test, the system named is Escherichia coli. The test is described as above. The class given is cell-based. Conditions: E. coli, 24 hours.
On to `Cl.Cl.Nc1nc(N/N=C/C2CCCCC2)cc(N/N=C/C2CCCCC2)n1` [NCL203], for which the “MIC (μg/ml) at 24 hours, E. coli” value was over 128 µg/mL.
Same read-out and setting: in the case of `CC(=NNC(=N)NN=C(C)c1ccc(Cl)cc1F)c1ccc(Cl)cc1F.Cl` [NCL215] it was over 128 µg/mL; in that of `Cl.N=C(N/N=C/c1ccc(Cl)cc1F)N/N=C/c1ccc(Cl)cc1F` [NCL216], over 128 µg/mL.

The subject of another test is Pseudomonas aeruginosa. Described as above. It counts as cell-based. As to conditions: P. aeruginosa, 24 hours.
Consider `Cl.Cl.Nc1nc(N/N=C/C2CCCCC2)cc(N/N=C/C2CCCCC2)n1` [NCL203], for which the “MIC (μg/ml) at 24 hours, P. aeruginosa” value was over 128 µg/mL.
Consider `CC(=NNC(=N)NN=C(C)c1ccc(Cl)cc1F)c1ccc(Cl)cc1F.Cl` [NCL215], for which the “MIC (μg/ml) at 24 hours, P. aeruginosa” value is over 128 µg/mL.
As to `Cl.N=C(N/N=C/c1ccc(Cl)cc1F)N/N=C/c1ccc(Cl)cc1F` [NCL216], the “MIC (μg/ml) at 24 hours, P. aeruginosa” value was over 128 µg/mL.

System in the next test: not listed separately
Put plainly: Bioassay ranking of the analogues tested. Conditions: M + R (MRSA and VRE combined).
Consider `Cl.Cl.Nc1nc(N/N=C/C2CCCCC2)cc(N/N=C/C2CCCCC2)n1` [NCL203], for which the “M + R” value was 44 µg/mL.
Still for that read-out and setting: in the case of `CC(=NNC(=N)NN=C(C)c1ccc(Cl)cc1F)c1ccc(Cl)cc1F.Cl` [NCL215] it was 7.25 µg/mL; in that of `Cl.N=C(N/N=C/c1ccc(Cl)cc1F)N/N=C/c1ccc(Cl)cc1F` [NCL216], 2.75 µg/mL.
